Each structure is given as a SMILES string. Like-named read-outs stand apart in the source and are kept apart here.

For orientation: IC50 means the concentration needed to halve the response being measured.

What all share (type): biochemical
One assay has as its target T1, m-calpain (Rattus norvegicus, UniProt Q07009).
T1 construct: m-calpain was purified from rat brain; from tissue; host or cells: rat brain
T1 sequence (Q07009 20-700 limits assumed): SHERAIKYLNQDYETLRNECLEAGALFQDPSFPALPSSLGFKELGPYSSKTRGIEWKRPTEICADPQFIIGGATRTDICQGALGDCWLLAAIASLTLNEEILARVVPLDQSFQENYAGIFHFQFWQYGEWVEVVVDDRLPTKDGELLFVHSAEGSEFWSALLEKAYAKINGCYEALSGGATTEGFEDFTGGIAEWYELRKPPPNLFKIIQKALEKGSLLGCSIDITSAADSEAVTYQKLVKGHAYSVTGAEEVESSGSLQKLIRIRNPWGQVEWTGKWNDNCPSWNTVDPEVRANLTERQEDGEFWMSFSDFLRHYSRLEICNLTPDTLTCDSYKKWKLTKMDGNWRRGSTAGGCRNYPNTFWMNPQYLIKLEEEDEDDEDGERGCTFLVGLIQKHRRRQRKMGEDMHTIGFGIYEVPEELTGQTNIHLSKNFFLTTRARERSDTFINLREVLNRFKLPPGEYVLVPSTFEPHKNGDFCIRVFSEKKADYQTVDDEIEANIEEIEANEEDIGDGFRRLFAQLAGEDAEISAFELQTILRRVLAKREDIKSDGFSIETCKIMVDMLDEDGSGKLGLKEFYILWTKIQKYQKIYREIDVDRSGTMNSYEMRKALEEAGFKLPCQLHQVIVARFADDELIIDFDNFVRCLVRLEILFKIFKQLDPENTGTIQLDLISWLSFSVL
T1 sequence (Q64537 1-270 partner): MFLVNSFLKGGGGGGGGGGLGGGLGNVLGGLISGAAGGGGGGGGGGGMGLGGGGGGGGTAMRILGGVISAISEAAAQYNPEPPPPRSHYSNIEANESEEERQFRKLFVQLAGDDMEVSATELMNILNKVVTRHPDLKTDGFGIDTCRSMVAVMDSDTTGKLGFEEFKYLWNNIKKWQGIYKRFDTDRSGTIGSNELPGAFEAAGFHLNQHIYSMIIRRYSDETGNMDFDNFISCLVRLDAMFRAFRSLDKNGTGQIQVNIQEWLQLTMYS
The assay is described as follows: Thiol protease inhibitory activity, m-calpain purified from rat brain. On the procedure: (§1) Inhibitory activity against papain (P-3125, Sigma) and cathepsin B (C-6286, Sigma) was assayed according to the method described in a literature [Biochemical Journal, 201, 189 (1982)]. Cathepsin L was purified from rat kidney according to the method in a literature [Journal of Biochemistry, 100, 35 (1986)], and the inhibitory activity against it was assayed in the same manner as described in the above literature for cathepsin B. Furthermore, m-calpain was purified from rat brain according to a known method [Journal of Biological Chemistry, 254, p. 3210 (1984)] and the inhibitory activity against it was assayed by a method described in a literature [Journal of Biological Chemistry, 259, 12489 (1984)]. It is evident from Tables 3 and 4 that the compounds of the present invention have a potent inhibitory activity against thiol proteases such as papain, cathepsin B, cathepsin L or m-calpain.

Another assay deals with T2, cathepsin B (Bos taurus, UniProt P07688).
T2 construct: purchased Sigma C-6286
The assay is described as follows: Thiol protease inhibitory activity, cathepsin B (C-6286, Sigma). Conditions: Table 3. On the procedure:
as §1

The next assay addresses T3, papain (Carica papaya, UniProt P00784).
T3 sequence (P00784 134-345): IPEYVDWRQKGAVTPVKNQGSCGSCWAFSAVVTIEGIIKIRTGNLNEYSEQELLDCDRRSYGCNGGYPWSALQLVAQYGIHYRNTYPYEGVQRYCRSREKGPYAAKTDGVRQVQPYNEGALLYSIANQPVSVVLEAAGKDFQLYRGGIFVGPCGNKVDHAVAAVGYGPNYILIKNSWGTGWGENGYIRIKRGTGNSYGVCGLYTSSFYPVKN
Description: Thiol protease inhibitory activity, papain (P-3125, Sigma). On the procedure: as §1

In another assay the target is T4, cathepsin L (Rattus norvegicus, UniProt P07154).
T4 construct: Cathepsin L was purified from rat kidney; from tissue; host or cells: rat kidney
Description: Thiol protease inhibitory activity, cathepsin L purified from rat kidney. As to conditions: Table 3. On the procedure: as §1

T4 sequence (P07154 114-334): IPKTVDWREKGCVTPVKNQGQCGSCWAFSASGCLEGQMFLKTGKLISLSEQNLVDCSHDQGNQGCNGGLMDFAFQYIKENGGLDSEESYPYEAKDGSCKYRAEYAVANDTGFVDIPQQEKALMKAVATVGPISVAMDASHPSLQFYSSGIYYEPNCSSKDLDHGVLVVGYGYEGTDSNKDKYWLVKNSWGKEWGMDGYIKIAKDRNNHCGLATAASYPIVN

Turning to `CCCC[C@H](NC(=O)[C@H](CC(C)C)NC(=O)COc1cccc2ccccc12)C(=O)CSCc1ccco1` [52 (No. 114), (s)-1-furfurylthio-3-[-(s)-4-methyl-2-(1-naphtoxyacetylamino)valerylamino]-2-heptanone], the half-maximal inhibitory concentration (IC50) amounted to 2.5 µM at m-calpain (Table 3); 0.82 µM against cathepsin B; 0.34 µM at papain (Table 3, read-out: IC50 papain).
For the compound `CCCC[C@H](NC(=O)[C@H](CC(C)C)NC(=O)COc1cccc(C)c1)C(=O)CSCc1ccco1` [45 (No. 97), (s)-1-furfurylthio-3-[(s)-4-methyl-2-(3-methylphenoxyacetylamino)valerylamino]-2-heptanone], the IC50 against m-calpain (Table 3) was 11 µM; against cathepsin B, 0.38 µM; against cathepsin L, 0.19 µM; at papain (Table 3, read-out: IC50 papain) it was 0.51 µM.
The like results for `CCCC[C@H](NC(=O)[C@H](CC(C)C)NC(=O)COc1ccccc1F)C(=O)CSCc1ccco1` [36 (No. 85), (s)-3-[(s)-2-(2-fluorophenoxyacetylamino)-4-methylvalerylamino]-1-furfurylthio-2-heptanone] were, in that order, 25 µM, 4.9 µM, 1.3 µM and 26 µM.
`CCCC[C@H](NC(=O)[C@H](CC(C)C)NC(=O)CSc1ccccc1)C(=O)CSCc1ccco1` [49 (No. 107), (s)-1-furfurylthio-3-((s)-4-methyl-2-phenylthioacetylaminovalerylamino)-2-heptanone]: the IC50 was 11 µM on m-calpain (Table 3), 0.59 µM on cathepsin B, 0.67 µM on cathepsin L and 0.04 µM at papain.
Take `CC(C)C[C@H](NC(=O)OCc1ccccc1)C(=O)N[C@@H](Cc1ccccc1)C(=O)CN(C)Cc1ccco1` [191 (No. 479), (s)-3-((s)-2-benzyloxycarbonylamino-4-methylvalerylamino)-1-(N-methylfurfurylamino)-4-phenyl-2-butanone]: the IC50 against m-calpain (Table 3) is 24 µM; against cathepsin B it was 3.5 µM; on cathepsin L, 9.3 µM; at papain (Table 3, read-out: IC50 papain), above 100 µM.
The like results for `CCCC[C@H](NC(=O)[C@H](CC(C)C)NC(=O)COc1ccc(Cl)cc1C)C(=O)CSCc1ccco1` [46 (No. 100), (s)-3-[(s)-2-(4-chloro-2-methylphenoxyacetylamino)-4-methylvalerylamino]-1-furfurylthio-2-heptanone] were, in that order, 16 µM, 0.4 µM, 0.1 µM and 0.39 µM.
For `CC(C)C[C@H](NC(=O)COc1ccccc1Cl)C(=O)N[C@@H](Cc1ccccc1)C(=O)CSCc1ccco1` [167 (No. 354), (s)-3-[(s)-2-(2-chlorophenoxyacetylamino)-4-methylvalerylamino]-1-furfurylthio-4-phenyl-2-butanone] the same measures were 20 µM, 30 µM, 1.4 µM and above 100 µM.
For the compound `CCCC[C@H](NC(=O)[C@H](CC(C)C)NC(=O)Cc1ccccc1)C(=O)CSCc1ccco1` [30 (No. 66), (s)-1-furfurylthio-3-((s)-4-methyl-2-phenylacetylaminovalerylamino)-2-heptanone], the IC50 against m-calpain (Table 3) was determined as 5.1 µM; on cathepsin B it was 0.59 µM; against papain, 0.15 µM.
In the case of `CC(C)C[C@H](NC(=O)COc1ccccc1)C(=O)N[C@@H](Cc1ccccc1)C(=O)CSCc1ccco1` [164 (No. 348), (s)-1-furfurylthio-3-((s)-4-methyl-2-phenoxyacetylaminovalerylamino)-4-phenyl-2-butanone], the half-inhibitory concentration (IC50) on m-calpain (Table 3) stood at 1.7 µM; at cathepsin B it was 64 µM; against cathepsin L, 3.2 µM; against papain, 35 µM.
On to `CCCC[C@H](NC(=O)[C@H](CC(C)C)NC(=O)OCc1ccccn1)C(=O)CSCc1ccco1` [28 (No. 59), (s)-1-furfurylthio-3-[(s)-4-methyl-2-(2-pyridylmethoxycarbonylamino)valerylamino]-2-heptanone], for which the IC50 at m-calpain (Table 3) was 11 µM; against cathepsin B, 2.1 µM; at cathepsin L it was 15 µM; on papain (Table 3, read-out: IC50 papain) it was 3.4 µM.
On to `CC(C)C[C@H](NC(=O)Cc1csc2ccccc12)C(=O)N[C@@H](Cc1ccccc1)C(=O)CSCc1ccco1` [162 (No. 345), (s)-3-[(s)-2-(3-benzothienylacetylamino)-4-methylvalerylamino]-1-furfurylthio-4-phenyl-2-butanone], for which the half-maximal inhibitory concentration (IC50) came out at 3.7 µM against m-calpain (Table 3); 5.3 µM at cathepsin B; 0.95 µM at papain (Table 3, read-out: IC50 papain).
In turn, `CC(C)C[C@H](NC(=O)OCc1ccccc1)C(=O)N[C@@H](Cc1ccccc1)C(=O)CSCc1ccc(Cl)s1` [183 (No. 423), (s)-3-((s)-2-benzyloxycarbonylamino-4-methylvalerylamino)-1-(5-chloro-2-thienylmethylthio)-4-phenyl-2-butanone] gave a half-inhibitory concentration (IC50) against m-calpain (Table 4) of 9.6 µM.
Regarding `CCCC[C@H](NC(=O)[C@H](CC(C)C)NC(=O)OCC1CCCCC1)C(=O)CSCc1ccco1` [21 (No. 46), (s)-3-((s)-2-cyclohexylmethoxycarbonylamino-4-methylvalerylamino)-1-furfurylthio-2-heptanone], the IC50 was 4.7 µM on m-calpain (Table 3); 0.14 µM against cathepsin B; 0.13 µM at papain (Table 3, read-out: IC50 papain).
As to `CCCC[C@H](NC(=O)[C@H](CC(C)C)NC(=O)c1cc(OC)cc(OC)c1)C(=O)CSCc1ccco1` [80 (No. 155), (s)-3-[(s)-2-(3,5-dimethoxybenzoylamino)-4-methylvalerylamino]-1-furfurylthio-2-heptanone], at m-calpain (Table 4), the IC50 worked out at 4.2 µM.
Still for that read-out and setting: the result for `CCCC[C@H](NC(=O)[C@H](CC(C)C)NC(=O)COc1cccc(OC)c1)C(=O)CSCc1ccco1` [78 (No. 103), (s)-1-furfurylthio-3-[(s)-2-(3-methoxyphenoxyacetylamino)-4-methylvalerylamino]-2-heptanone] reads 6 µM; that for `CC(C)C[C@H](NC(=O)OCc1ccccc1)C(=O)N1CCC[C@H]1C(=O)CSCc1ccco1` [Ref. Ex. No. 3, (s)-1-((s)-2-benzyloxycarbonylamino-4-methylvaleryl)-2-furfurylthioacetylpyrrolidine, reference compound], above 100 µM.
Same read-out and setting: the result for `CCCC[C@H](NC(=O)[C@H](CC(C)C)NC(=O)C=Cc1ccc(OC)cc1)C(=O)CSCc1ccco1` [84 (No. 165), (s)-1-furfurylthio-3-[(s)-2-(4-methoxycinnamoylamino)-4-methylvalerylamino]-2-heptanone] reads 2.1 µM.
With `CCCC[C@H](NC(=O)[C@H](CC(C)C)NC(=O)COc1ccccc1Cl)C(=O)CSCc1ccco1` [39 (No. 88), (s)-3-[(s)-2-(2-chlorophenoxyacetylamino)-4-methylvalerylamino]-1-furfurylthio-2-heptanone], the 50% inhibitory concentration (IC50) was 2.2 µM at m-calpain (Table 3); 0.29 µM against cathepsin B; 0.25 µM on papain (Table 3, read-out: IC50 papain).
As for `CCCC[C@H](NC(=O)[C@H](CC(C)C)NC(=O)c1c(F)ccc(F)c1F)C(=O)CSCc1ccco1` [65 (No. 128), (s)-1-furfurylthio-3-[(s)-4-methyl-2-(2,3,6-trifluorobenzoylamino)valerylamino]-2-heptanone], the half-maximal inhibitory concentration (IC50) on m-calpain (Table 4) worked out at 5 µM.
`CCCC[C@H](NC(=O)[C@H](CC(C)C)NC(=O)C=Cc1ccc(OC)cc1OC)C(=O)CSCc1ccco1` [85 (No. 166)] yielded an IC50 against m-calpain (Table 4) of 1.3 µM.
Turning to `CCCC[C@H](NC(=O)[C@H](CC(C)C)NC(=O)c1ccc(C)cc1)C(=O)CSCc1ccco1` [71 (No. 142), (s)-1-furfurylthio-3-[(s)-4-methyl-2-(4-toluoylamino)valerylamino]-2-heptanone], the half-maximal inhibitory concentration (IC50) against m-calpain (Table 4) was determined as 4.2 µM.

For the origin of these results see patent publication US5639783A, “Ketone derivatives” (Mitsubishi Chemical Corporation, priority 1991, dated 1997).
